In US8906909B2 (Curis, Inc., priority 2009, dated 2014):

Test system: HDACs (HeLa cell nuclear extracts)
Assay: HDAC enzymatic activity, Biomol Color de Lys system
Format: biochemical
Method: (e) An In Vitro Assay which Determines the Ability of a Test Compound to Inhibit HDAC Enzymatic Activity.
HDAC inhibitory activity was assessed using the Biomol Color de Lys system (AK-500, Biomol, Plymouth Meeting, Pa.). Briefly, HeLa cell nuclear extracts were used as a source of HDACs. Different concentrations of test compounds were serially diluted in dimethylsulphoxide (DMSO) and added to HeLa cell nuclear extracts in the presence of a colorimetric artificial substrate. Final assay condition contained 50 mM Tris/Cl, pH 8.0, 137 mM NaCl, 2.7 mM KCl and 1 mM MgCl2. Reactions were carried in room temperature (25° C.) for 1 hour before addition of developer for termination. Relative enzyme activity was measured in the WALLAC Victor II 1420 microplate reader as floorescence intensity (excitation: 350-380 nm; emission: 440-460 nm). Data were analyzed using GraphPad Prism (v4.0a) with a sigmoidal dose response curve fitting for IC50 calculation.

SMILES	IC50
CN(Cc1cc2nc(-c3cccc4[nH]ncc34)nc(NCCO)c2s1)c1ncc(C(=O)NO)cn1 [Compound 161]	< 100 nM
Cc1c(CN(C)c2ncc(C(=O)NO)cn2)sc2c(N3CCOCC3)nc(-c3cccc4[nH]ncc34)nc12 [Compound 68]	< 100 nM
CCCc1nc2cc(/C=C/C(=O)NO)ccc2n1CCN(C)Cc1cc2nc(-c3ccc(NC)nc3)nc(N3CCOCC3)c2s1 [Compound 322]	100 to 1000 nM
COc1ccc(-c2nc(N3CCOCC3)c3sc(NCCCCC(=O)NO)cc3n2)cn1 [Compound 230]	< 100 nM
CN(c1ncc(C(=O)NO)cn1)C(C)(C)c1cc2nc(-c3ccc(N)cc3)nc(N3CCOCC3)c2s1 [Compound 270]	< 100 nM
Nc1ccc(-c2nc(N3CCOCC3)c3sc(CN(CCO)c4ncc(C(=O)NO)cn4)cc3n2)cc1F [Compound 277]	< 100 nM
COc1ncc(-c2nc(N3CCOCC3)c3sc(NS(=O)(=O)c4cccc(/C=C/C(=O)NO)c4)cc3n2)cn1 [Compound 220]	< 100 nM
O=C(CCCCNc1cc2nc(-c3cccc4[nH]ncc34)nc(N3CCOCC3)c2s1)NO [Compound 18]	< 100 nM
COc1cccc(Nc2nc(-c3cccc4[nH]ncc34)nc3cc(CN(C)c4ncc(C(=O)NO)cn4)sc23)c1 [Compound 166]	< 100 nM
CN(Cc1cc2nc(-c3cnc(C(N)=O)nc3)nc(N3CCOCC3)c2s1)c1ncc(C(=O)NO)cn1 [Compound 122]	< 100 nM
C/C(=N/O)c1cccc(-c2nc(N3CCOCC3)c3sc(CN(C)c4ncc(C(=O)NO)cn4)cc3n2)c1 [Compound 299]	< 100 nM
Cc1ncc(-c2nc(N3CCOCC3)c3sc(CN(CCO)c4ncc(C(=O)NO)cn4)cc3n2)s1 [Compound 312]	< 100 nM
CN(Cc1cc2nc(-c3cccc4[nH]ncc34)nc(N3CCN(CCO)CC3)c2s1)c1ncc(C(=O)NO)cn1 [Compound 63]	< 100 nM
CN(Cc1cc2nc(-c3ccc4[nH]ccc4c3)nc(N3CCOCC3)c2s1)c1ncc(C(=O)NO)cn1 [Compound 192]	< 100 nM
CN(Cc1cc2nc(-c3cccc4[nH]c(=O)[nH]c34)nc(N3CCOCC3)c2s1)c1ncc(C(=O)NO)cn1 [Compound 314]	< 100 nM
CN(Cc1cc2nc(-c3cccc(S(=O)(=O)CCO)c3)nc(N3CCOCC3)c2s1)c1ncc(C(=O)NO)cn1 [Compound 291]	< 100 nM
CNc1ccc(-c2nc(N3CCOCC3)c3sc(NS(=O)(=O)c4ccc(/C=C/C(=O)NO)cc4)cc3n2)cn1 [Compound 223]	< 100 nM
CN(Cc1cc2nc(-c3c[nH]c4ccccc34)nc(N3CCOCC3)c2s1)c1ncc(C(=O)NO)cn1 [Compound 184]	< 100 nM
CCCc1nc2cc(/C=C/C(=O)NO)ccc2n1CCN(C)Cc1cc2nc(-c3ccc(N)cc3)nc(N3CCOCC3)c2s1 [Compound 324]	100 to 1000 nM
CNc1ccc(-c2nc(N3CCOCC3)c3sc(CN(C)Cc4nc5cc(/C=C/C(=O)NO)ccc5n4C)cc3n2)cn1 [Compound 329]	100 to 1000 nM
CCN(CC)c1nc(-c2cccc3[nH]ncc23)nc2cc(CN(C)c3ncc(C(=O)NO)cn3)sc12 [Compound 158]	< 100 nM

SMILES	IC50
Nc1ccc(-c2nc(N3CCOCC3)c3sc(Nc4ncc(C(=O)NO)cn4)cc3n2)cc1 [Compound 273]	100 to 1000 nM
CN(Cc1cc2nc(-c3cccc4[nH]ncc34)nc(N3CCOCC3)c2s1)c1ccc(C(=O)NO)cc1 [Compound 79]	< 100 nM
CCN(Cc1cc2nc(-c3ccc(N)cc3)nc(N3CCOCC3)c2s1)c1ncc(C(=O)NO)cn1 [Compound 215]	< 100 nM
CN(Cc1cc2nc(-c3cccc4[nH]ncc34)nc(N(CCO)CCO)c2s1)c1ncc(C(=O)NO)cn1 [Compound 162]	< 100 nM
CN(Cc1cc2nc(-c3cccc4[nH]ncc34)nc(N3CCNCC3)c2s1)c1ncc(C(=O)NO)cn1 [Compound 60]	< 100 nM
CN(Cc1cc2nc(-c3cccc4[nH]c(=O)sc34)nc(N3CCOCC3)c2s1)c1ncc(C(=O)NO)cn1 [Compound 317]	< 100 nM
NC(=O)CN(Cc1cc2nc(-c3cccc4[nH]ncc34)nc(N3CCOCC3)c2s1)c1ncc(C(=O)NO)cn1 [Compound 97]	< 100 nM
O=C(/C=C/c1cc2nc(-c3cccc4[nH]ncc34)nc(N3CCOCC3)c2s1)NO [Compound 46]	1000 to 10000 nM
CN(Cc1cc2nc(-c3cccc4[nH]ncc34)nc(N3CCCCC3)c2s1)c1ncc(C(=O)NO)cn1 [Compound 67]	< 100 nM
CCCc1nc2cc(/C=C/C(=O)NO)ccc2n1CCNCc1cc2nc(-c3ccc(NC)nc3)nc(N3CCOCC3)c2s1 [Compound 323]	100 to 1000 nM
CC(=O)c1ccc(F)c(-c2nc(N3CCOCC3)c3sc(CN(C)c4ncc(C(=O)NO)cn4)cc3n2)c1 [Compound 301]	< 100 nM
COCCN(CCOC)c1nc(-c2cccc3[nH]ncc23)nc2cc(CN(C)c3ncc(C(=O)NO)cn3)sc12 [Compound 163]	< 100 nM
CC(c1cc2nc(-c3ccc(N)cc3)nc(N3CCOCC3)c2s1)N(C)c1ncc(C(=O)NO)cn1 (stereo not drawn) [Compound 214]	< 100 nM
CN(C)CCN(Cc1cc2nc(-c3cccc4[nH]ncc34)nc(N3CCOCC3)c2s1)c1ncc(C(=O)NO)cn1 [Compound 95]	100 to 1000 nM
CN(Cc1cc2nc(-c3cccc(NS(C)(=O)=O)c3)nc(N3CCOCC3)c2s1)c1ncc(C(=O)NO)cn1 [Compound 288]	< 100 nM
CC(C)(Nc1ncc(C(=O)NO)cn1)c1cc2nc(-c3ccc(N)cc3)nc(N3CCOCC3)c2s1 [Compound 269, 2-(2-(2-(4-Aminophenyl)-4-morpholinothieno[3,2-d]pyrimidin-6-yl)propan-2-ylamino)-N-hydroxypyrimidine-5-carboxamide]	< 100 nM
CN(Cc1cc2nc(-c3cccc4c3CC(=O)N4)nc(N3CCOCC3)c2s1)c1ncc(C(=O)NO)cn1 [Compound 178]	< 100 nM
O=C(NO)c1ccc(CNCc2cc3nc(-c4cccc5[nH]ncc45)nc(N4CCOCC4)c3s2)cc1 [Compound 203]	100 to 1000 nM
COc1ccc(-c2nc(N3CCOCC3)c3sc(Nc4ncc(C(=O)NO)cn4)cc3n2)cn1 [Compound 253]	100 to 1000 nM
COc1ccccc1Nc1nc(-c2cccc3[nH]ncc23)nc2cc(CN(C)c3ncc(C(=O)NO)cn3)sc12 [Compound 167]	< 100 nM

The remaining lines, values ahead:

IC50	SMILES
< 100 nM	Cc1ncc(-c2nc(N3CCOCC3)c3sc(CN(C)c4ncc(C(=O)NO)cn4)cc3n2)s1 [Compound 311]
< 100 nM	COc1ncc(-c2nc(N3CCOCC3)c3sc(C(C)(C)N(C)c4ncc(C(=O)NO)cn4)cc3n2)cn1 [Compound 264]
< 100 nM	NCCN(Cc1cc2nc(-c3cccc4[nH]ncc34)nc(N3CCOCC3)c2s1)c1ncc(C(=O)NO)cn1 [Compound 94]
< 100 nM	COc1ccc(-c2nc(N3CCOCC3)c3sc(C(C)(C)Nc4ncc(C(=O)NO)cn4)cc3n2)cn1 [Compound 250, N-Hydroxy-2-(2-(2-(6-methoxypyridin-3-yl)-4-morpholinothieno[3,2-d]pyrimidin-6-yl)propan-2-ylamino)pyrimidine-5-carboxamide]
< 100 nM	COCCNc1nc(-c2cccc3[nH]ncc23)nc2cc(CN(C)c3ncc(C(=O)NO)cn3)sc12 [Compound 160]
< 100 nM	CN(Cc1cc2nc(-c3ccc(O)nc3)nc(N3CCOCC3)c2s1)c1ncc(C(=O)NO)cn1 [Compound 254]
< 100 nM	CN(C)c1nc(-c2cccc3[nH]ncc23)nc2cc(CN(C)c3ncc(C(=O)NO)cn3)sc12 [Compound 159]
< 100 nM	CC(=O)NCCN(Cc1cc2nc(-c3cccc4[nH]ncc34)nc(N3CCOCC3)c2s1)c1ncc(C(=O)NO)cn1 [Compound 96]
< 100 nM	CN1CCN(c2nc(-c3cccc4[nH]ncc34)nc3cc(CN(C)c4ncc(C(=O)NO)cn4)sc23)CC1 [Compound 61]
< 100 nM	CN(Cc1cc2cc(-c3cccc4[nH]ncc34)nc(N3CCOCC3)c2s1)c1ncc(C(=O)NO)cn1 [Compound 74]
< 100 nM	CN(c1ncc(C(=O)NO)cn1)c1cc2nc(-c3ccc(N)cc3)nc(N3CCOCC3)c2s1 [Compound 272]
< 100 nM	Nc1ccc(-c2nc(N3CCOCC3)c3sc(CN4CCN(c5ncc(C(=O)NO)cn5)CC4)cc3n2)cc1 [Compound 207]
< 100 nM	CNc1ccc(-c2nc(N3CCOCC3)c3sc(CN(CCO)c4ncc(C(=O)NO)cn4)cc3n2)cn1 [Compound 245]
< 100 nM	Nc1ccc(-c2nc(N3CCOCC3)c3sc(CNCc4ccc(C(=O)NO)cc4)cc3n2)cc1 [Compound 209]
100 to 1000 nM	CNc1ccc(-c2nc(N3CCOCC3)c3sc(N(C)c4ncc(C(=O)NO)cn4)cc3n2)cn1 [Compound 243]
< 100 nM	CN(Cc1cc2nc(-c3cccc(C(N)=O)c3)nc(N3CCOCC3)c2s1)c1ncc(C(=O)NO)cn1 [Compound 142, 2-(((2-(3-carbamoylphenyl)-4-morpholinothieno[3,2-d]pyrimidin-6-yl)methyl)(methyl)amino)-N-hydroxypyrimidine-5-carboxamide]
100 to 1000 nM	O=C(NO)c1cnc(N2CCN(S(=O)(=O)c3cc4nc(-c5cccc6[nH]ncc56)nc(N5CCOCC5)c4s3)CC2)nc1 [Compound 51]
< 100 nM	CC(=O)c1cccc(-c2nc(N3CCOCC3)c3sc(CN(C)c4ncc(C(=O)NO)cn4)cc3n2)c1 [Compound 300]
< 100 nM	CC(C)(Nc1ncc(C(=O)NO)cn1)c1cc2nc(-c3cccc4[nH]ncc34)nc(N3CCOCC3)c2s1 [Compound 71]
< 100 nM	CNc1ccc(-c2nc(N3CCOCC3)c3sc(C(C)(C)N(C)c4ncc(C(=O)NO)cn4)cc3n2)cn1 [Compound 241]
< 100 nM	CN(Cc1cc2nc(-c3ccc(OCc4ccccc4)nc3)nc(N3CCOCC3)c2s1)c1ncc(C(=O)NO)cn1 [Compound 260]
< 100 nM	C#CCCN(Cc1cc2nc(-c3cccc4[nH]ncc34)nc(N3CCOCC3)c2s1)c1ncc(C(=O)NO)cn1 [Compound 98]
